This passage reports IC50 results from US12331033B2, “Inhibitors of SARM1” (Disarm Therapeutics, Inc., priority 2020, dated 2025).

Molecules are shown by their SMILES.

In this assay the target is SARM1 (ARM-SAM-TIR) (Homo sapiens (Human), UniProt Q6SZW1). Briefly: ARM-SAM-TIR SARM1 IC50 assay (NADase activity, NAD+ cleavage, RapidFire MS). Format: biochemical. The following applies: ARM-SAM-TIR lysate 5 μg/mL, 2 h pre-incubation, 5 μM NAD+, 2 hr room temperature. A digest of the protocol: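 Lysate of NRK1-HEK293T cells transfected with full-length ARM-SAM-TIR SARM1 (5 μg/mL final) pre-incubated with compound (1% DMSO) 2 h at room temperature in Dulbecco's PBS. Reaction started with 5 μM NAD+, run 2 hr at room temperature, then stopped with TCA/acetonitrile. NAD+ and ADPR quantified by RapidFire MS.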
SARM1 (ARM-SAM-TIR), sequence (Q6SZW1 other isoform, or with tags, fused parts or gaps): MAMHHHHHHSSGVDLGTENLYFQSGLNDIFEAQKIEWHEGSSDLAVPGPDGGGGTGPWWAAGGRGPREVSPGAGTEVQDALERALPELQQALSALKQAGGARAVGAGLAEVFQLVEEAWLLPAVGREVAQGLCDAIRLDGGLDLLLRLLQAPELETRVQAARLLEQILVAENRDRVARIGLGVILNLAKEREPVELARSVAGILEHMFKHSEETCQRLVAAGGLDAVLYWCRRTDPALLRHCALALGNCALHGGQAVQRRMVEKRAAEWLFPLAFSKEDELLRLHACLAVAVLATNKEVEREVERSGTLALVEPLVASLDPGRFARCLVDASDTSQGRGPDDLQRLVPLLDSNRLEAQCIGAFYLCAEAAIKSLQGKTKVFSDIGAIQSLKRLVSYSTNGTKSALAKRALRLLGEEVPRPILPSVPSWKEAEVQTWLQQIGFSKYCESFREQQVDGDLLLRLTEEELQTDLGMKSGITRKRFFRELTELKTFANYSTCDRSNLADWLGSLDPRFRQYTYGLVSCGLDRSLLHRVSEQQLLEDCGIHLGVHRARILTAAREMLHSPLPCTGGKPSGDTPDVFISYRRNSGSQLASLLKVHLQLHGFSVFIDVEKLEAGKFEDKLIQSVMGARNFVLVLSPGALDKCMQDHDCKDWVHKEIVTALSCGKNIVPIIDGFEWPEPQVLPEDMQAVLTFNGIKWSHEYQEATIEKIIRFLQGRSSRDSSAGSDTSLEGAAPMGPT
Turning to `O=C(CCc1ccc(Cl)nc1)Nc1[nH]nc(-c2ccncc2)c1F` [Example 266], the IC50 (in general, the concentration at which inhibition is half-maximal) was < 5 µM.
As for `O=C(CCc1ccc(Cl)nc1)Nc1cc(-c2cccnc2)n[nH]1` [Example 267], the figure is 5 to 15 µM; as for `Cc1c(-c2ccncc2)n[nH]c1NC(=O)CCc1ccc(F)c(F)c1` [Example 268], < 5 µM.
The value for `Cc1c(-c2ccncc2)n[nH]c1NC(=O)COc1ccc(Cl)cc1` [Example 269] was < 5 µM.
As for `Cc1c(-c2ccncc2)n[nH]c1NC(=O)CCc1ccc(Cl)c(C#N)c1` [Example 270], the figure is < 5 µM.
As to `O=C(CCc1ccc(Cl)nc1)Nc1[nH]nc(-c2ccncc2)c1Cl` [Example 271], the IC50 was < 5 µM.
As for `O=C(CCc1ccc(Cl)nc1)Nc1[nH]nc(-c2ccnnc2)c1C1CC1` [Example 272], the figure is < 5 µM.
The value for `O=C(CCc1ccc(Cl)cc1)Nc1[nH]nc(-c2ccnnc2)c1C1CC1` [Example 273] was < 5 µM.
The value for `Cc1c(-c2ccncc2)n[nH]c1NC(=O)CCc1ccc(C#N)c(F)c1` [Example 274] was < 5 µM; that for `O=C(Nc1cc(-c2ccncc2)n[nH]1)C(O)Cc1ccc(Cl)cc1` (stereo not drawn) [Example 275] was < 5 µM.
With `O=C(Nc1nnc(-c2ccncc2)[nH]1)N[C@@H]1CCOc2cc(Cl)ncc21` [Example 276], the IC50 fell in the range of 5 to 15 µM.
As for `O=C(Nc1nnc(-c2ccncc2)[nH]1)N[C@H]1CCOc2cc(Cl)ncc21` [Example 277], the figure is < 5 µM; as for `Cc1c(-c2ccnnc2)n[nH]c1NC(=O)C[C@H]1CCOc2cc(Cl)ccc21` [Example 278], < 5 µM; as for `Cc1c(-c2ccnnc2)n[nH]c1NC(=O)C[C@@H]1CCOc2cc(Cl)ccc21` [Example 279], < 5 µM.
As for `O=C(Nc1nnc(-c2ccncc2)[nH]1)[C@H]1C[C@H](c2ccc(Cl)nc2)C1` [Example 280], the figure is < 5 µM.
Turning to `N#Cc1c(-c2ccncc2F)n[nH]c1NC(=O)CCc1ccc(Cl)nc1` [Example 281], the IC50 was < 5 µM.
As for `[2H]C([2H])([2H])c1c(-c2ccncc2)n[nH]c1NC(=O)CCc1ccc(Cl)nc1` [Example 282], the figure is < 5 µM; as for `O=C(CC1CNc2cc(Cl)ccc21)Nc1nnc(-c2ccncc2)[nH]1` (stereo not drawn) [Example 283], < 5 µM; as for `COCc1c(-c2ccncc2)n[nH]c1NC(=O)CCc1ccc(Cl)cc1` [Example 284], < 5 µM.
As for `CNC(=O)Cc1c(-c2ccncc2)n[nH]c1NC(=O)CCc1ccc(Cl)nc1` [Example 285], the IC50 was < 5 µM.
Regarding `NC(=O)c1cnccc1-c1nnc(NC(=O)CCc2ccc(Cl)cc2)[nH]1` [Example 286], the IC50 was < 5 µM.
As for `Cc1c(-c2ccncc2)nn(C)c1NC(=O)CCc1ccc(Cl)nc1` [Example 287], the figure is < 5 µM.
The value for `Cc1c(-c2ccncc2)n[nH]c1N(C)C(=O)CCc1ccc(Cl)nc1` [Example 288] was 5 to 15 µM.
Regarding `Cc1c(-c2ccncc2)n[nH]c1NC(=O)[C@H](O)Cc1ccc(Cl)cc1` [Example 289], the IC50 was < 5 µM.
For `Cc1c(-c2ccncc2)n[nH]c1NC(=O)[C@@H](O)Cc1ccc(Cl)cc1` [Example 290], the IC50 was < 5 µM.
Turning to `Cc1c(-c2ccncc2)n[nH]c1NC(=O)CSc1ccc(Cl)cc1` [Example 292], the IC50 is < 5 µM.
The value for `Cc1c(-c2ccncc2)n[nH]c1NC(=O)CS(=O)(=O)c1ccc(Cl)cc1` [Example 293] was < 5 µM.
The value for `Nc1cnccc1-c1cc(NC(=O)CCc2ccc(Cl)nc2)[nH]n1` [Example 294] was < 5 µM; that for `O=C(Cc1coc2cc(Cl)ccc12)Nc1nnc(-c2ccncc2)[nH]1` [Example 295] was < 5 µM; that for `O=C(Nc1nnc(-c2ccncc2)[nH]1)N1CCc2cc(Cl)ncc2C1` [Example 296] was < 5 µM.
The value for `COCc1c(-c2ccncc2)n[nH]c1NC(=O)CCc1ccc(Cl)nc1` [Example 297] was < 5 µM; that for `O=C(CCc1ccc(Cl)cc1)Nc1cc(-c2ccncc2C2CC2)n[nH]1` [Example 298] was < 5 µM; that for `O=C(CCc1ccc(Cl)cc1)Nc1cc(-c2ccncc2-c2ccccc2)n[nH]1` [Example 299] was < 5 µM.
In the case of `O=C(CCc1ccc(Cl)cc1)Nc1cc(-c2c(F)cncc2F)n[nH]1` [Example 300], the IC50 was < 5 µM.
The value for `CN(C)C(=O)Cc1c(-c2ccncc2)n[nH]c1NC(=O)CCc1ccc(Cl)cc1` [Example 301] was < 5 µM; that for `NC(=O)Cc1c(-c2ccncc2)n[nH]c1NC(=O)CCc1ccc(Cl)cc1` [Example 302] was < 5 µM.
The value for `CC1(c2c(-c3ccncc3)n[nH]c2NC(=O)CCc2ccc(Cl)cc2)CC1` [Example 303] was < 5 µM; that for `N#Cc1c(-c2ccnnc2)n[nH]c1NC(=O)CCc1ccc(Cl)nc1` [Example 304] was < 5 µM; that for `Cc1ccc(CCC(=O)Nc2[nH]nc(-c3ccncc3)c2C)cn1` [Example 306] was < 5 µM.
For `Cc1ccc(CCC(=O)Nc2[nH]nc(-c3ccncc3F)c2C)cn1` [Example 307], the IC50 was < 5 µM.
Consider `Cc1c(-c2ccncc2F)n[nH]c1NC(=O)CCc1ccc(Cl)s1` [Example 308], for which the IC50 is < 5 µM.
As for `NC(=O)Cc1c(-c2ccncc2)n[nH]c1NC(=O)CCc1ccc(Cl)nc1` [Example 309], the figure is < 5 µM; as for `CC1(c2c(-c3ccncc3)n[nH]c2NC(=O)CCc2ccc(Cl)nc2)CC1` [Example 310], < 5 µM; as for `CC1(c2c(-c3ccnnc3)n[nH]c2NC(=O)CCc2ccc(Cl)cc2)CC1` [Example 311], < 5 µM.
The value for `N#Cc1c(-c2ccnnc2)n[nH]c1NC(=O)CCc1ccc(Cl)cc1` [Example 312] was < 5 µM; that for `Cc1c(-c2ccncc2F)n[nH]c1NC(=O)CCc1ccc(Cl)cc1` [Example 313] was < 5 µM; that for `Cc1c(-c2ccncc2F)n[nH]c1NC(=O)CCc1ccc(Cl)nc1` [Example 314] was < 5 µM.
Compound `O=C(CCc1ccc(Cl)cc1)Nc1nnc(-c2c(F)cncc2F)[nH]1` [Example 315] showed an IC50 of 5 to 15 µM.
As for `CN(C)C(=O)Cc1c(-c2ccncc2)n[nH]c1NC(=O)CCc1ccc(Cl)nc1` [Example 316], the figure is < 5 µM; as for `Cc1c(-c2ccncc2)n[nH]c1NC(CCc1ccc(Cl)cc1)C(F)(F)F` (stereo not drawn) [Example 317], 5 to 15 µM; as for `Cc1c(-c2ccncc2F)n[nH]c1NC(=O)[C@H]1C[C@H](c2ccc(Cl)cc2)C1` [Example 318], < 5 µM.
The value for `Cc1c(-c2ccncc2F)n[nH]c1NC(=O)CCc1ccc(Cl)c(F)c1` [Example 320] was < 5 µM.
Take `CC1(c2c(-c3ccnnc3)n[nH]c2NC(=O)CCc2ccc(Cl)nc2)CC1` [Example 321]: the IC50 was < 5 µM.
Take `Cc1cnccc1-c1n[nH]c(NC(=O)CCc2ccc(Cl)nc2)c1C` [Example 322]: the IC50 is < 5 µM.
`Cc1c(-c2ccncc2)n[nH]c1NC(=O)C1Cc2ccccc2CO1` (stereo not drawn) [Example 323] returned an IC50 of 5 to 15 µM.
As for `O=C(CCc1ccc(Cl)cc1)Nc1cc(-c2c(F)cncc2Br)n[nH]1` [Example 324], the figure is 5 to 15 µM; as for `N#Cc1c(-c2ccncc2F)n[nH]c1NC(=O)CCc1ccc(Cl)cc1` [Example 325], < 5 µM.
